Test [1] concerns the target T1, integrin receptors αvβ3 (Homo sapiens, UniProt P05106+P06756).
T1 construct: membrane fractions prepared from human endothelial adenocarcinoma cell line EA-Hy 926; endogenous in cells; host or cells: EA-Hy 926 (human endothelial cell line), membrane fractions
As to the kind of experiment: In vitro affinity assessment αvβ3: competition with radiolabelled Echistatin on membrane fractions of EA-Hy 926. Type of test: binding. As to conditions: for competing out binding of the radiolabelled Echistatin: highest concentration tested 144 μM, FIG. 1. How it is done:
Affinity for integrin receptors αvβ3 was measured by competition experiments with [[…]]-Echistatin on membrane fractions prepared from human endothelial adenocarcinoma cell line EA-Hy 926 using a homogenizer and isolated by ultracentrifugation. Dilutions of test compounds were mixed with the radiotracer and membrane fraction prior to incubation for 1 h at 37° C. After a washing procedure the membranes were harvested on a filter using Skatron micro harvester. The filter spots were finally excised and counted in a Packard γ-counter. The Kd of [[…]]-Echistatin was calculated using Prism software. […] The compounds tested were EMD527040 (benchmark), the cPn216-chelated compound of Example 2(viii) and the tetraamine-chelated compound of Example 3(ii).

Test [2] relates to lung adenocarcinoma cell line H2009. The experiment in a line: Flow cytometry evaluation of binding on H2009 cells. Type of test: cell-based. As to conditions: 100 nM, incubation time 1 h at 37° C. The source says: Binding of imaging agent 7 (prepared as described in Example 9) was studied using flow cytometric analysis (Beckman Coulter FC500 MPL) on lung adenocarcinoma cell line H2009 (Cancer Res; 67: 5889-5895).

Regarding `O=C(O)CC(NC(=O)[C@H](COCc1ccccc1)NC(=O)CCCCNc1ccccn1)c1cc(Cl)cc(Cl)c1` (some centres unmarked) [EMD527040, reference compound], the “competing out binding of the radiolabelled Echistatin” value (“competing out binding” below) in test [1] is reported as “not possible to compete out binding of the radiolabelled Echistatin completely”.

As to “1-(Cy5**-amido)-45-(3,5-dichlorophenyl)-39,43-dioxo-42-(5-(pyridin-2-ylamino)pentanamido)-3,6,9,12,15,18,21,24,27,30,33,36-dodecaoxa-40,44-diazaheptatetracontan-47-oic acid [imaging agent 7]”, the “positive uptake, share of the cells” value in test [2] is recorded as “around 40%”.

With `C/C(=N/O)C(C)(C)NCCC(CCNC(=O)CCCC(=O)NC[C@H](NC(=O)CCCCNc1ccccn1)C(=O)NC(CC(=O)O)c1cc(Cl)cc(Cl)c1)CCNC(C)(C)/C(C)=N\O` (stereo partly drawn) [Example 2(viii), (6S,Z)-3-(3,5-dichlorophenyl)-22-(hydroxyimino)-17-(2-(((Z)-3-(hydroxyimino)-2-methylbutan-2-yl)amino)ethyl)-21,21-dimethyl-5,9,13-trioxo-6-(5-(pyridin-2-ylamino)pentanamido)-4,8,14,20-tetraazatricosan-1-oic acid], in test [1], the “competing out binding” value is given as “not possible to compete out binding of the radiolabelled Echistatin completely”.

What is called Ki is the dissociation constant of the complex between target and ligand, obtained from inhibition or displacement. Take Echistatin [reference compound]: the inhibition constant Ki in test [1] (competition with [^115I]-Echistatin, EA-Hy 926 membrane fraction, 1 h at 37° C.) stood at 140 pM. This counts as sub-nanomolar.

On to `NCCNCC(CNCCN)CC(=O)NC[C@H](NC(=O)CCCCNc1ccccn1)C(=O)NC(CC(=O)O)c1cc(Cl)cc(Cl)c1` (stereo partly drawn) [Example 3(ii), 3-((S)-3-(4-(2-Aminoethylamino)-3-((2-aminoethylamino)methyl)butanamido)-2-(5-(pyridin-2-ylamino)pentanamido)propanamido)-3-(3,5-dichlorophenyl)propanoic acid], for which, in test [1], the “competing out binding” value is reported as “not possible to compete out binding of the radiolabelled Echistatin completely”.
